Reference: patent US11566007B2, “Ras inhibitors” (Revolution Medicines, Inc., priority 2019, dated 2023)
“And” between values parts separate entries of the source, which are not always exact repeats. Equal values may be shown once.

How the values were obtained:
[1] = system: NCI-H358 cells (K-Ras G12C); assay: Potency assay: pERK in NCI-H358 cells; assay type: cell-based, human; settings: Homo sapiens, NCI-H358; H358 KRAS G12C; read-out: pERK EC50
Outline: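 Compounds are dosed as ten 3-fold dilutions from a 10 mM DMSO stock, in duplicate, and left on cells for 4 h at 37 °C, 5% CO2. Phospho-ERK1/2 is then quantified by AlphaLISA SureFire Ultra or In-Cell Western, and IC50 is derived from a 4-parameter sigmoid against log concentration.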

KRAS G12D = KRAS G12D (Homo sapiens (Human), UniProt P01116+P62937, G12D); assay: Ras-Raf (BRAF RBD) disruption / FRET / MOA assay, KRAS G12D; assay type: biochemical; settings: Ras-Raf disruption/FRET/MOA assay; class symbols; read-out: KRAS G12D FRET data IC50
Outline: (§1)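 Ras:RAF disruption was scored as a fall in TR-FRET ratio relative to DMSO. Compound ranged in 3-fold steps over 10 points from 30 μM final; incubation ran 3 h at 25° C, detection antibodies a further 1.5 h. Reported as IC50.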

KRAS Q61H = KRAS Q61H (Homo sapiens (Human), UniProt P01116+P62937, Q61H); assay: Ras-Raf (BRAF RBD) disruption / FRET / MOA assay, KRAS Q61H; assay type: biochemical; settings: Ras-Raf disruption/FRET/MOA assay; class symbols; read-out: KRAS Q61H FRET data IC50
Outline: (§2)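 TR-FRET disruption of nucleotide-loaded Ras binding to BRAF RBD via compound-driven ternary complex with cyclophilin A. Compound as 10-point 3-fold series from 30 μM final, 3 h at 25° C, then anti-His Eu-W1024 (10 nM) and anti-GST allophycocyanin (50 nM) for 1.5 h. IC50 from decreased FRET ratio versus DMSO.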

NRAS G12C = NRAS G12C (Homo sapiens (Human), UniProt P01111+P62937, G12C); assay: Ras-Raf (BRAF RBD) disruption / FRET / MOA assay, NRAS G12C; assay type: biochemical; settings: read-out: IC50* NRAS G12C FRET data
Outline: as §1

NRAS Q61R = NRAS Q61R (Homo sapiens (Human), UniProt P01111+P62937, Q61R); assay: Ras-Raf (BRAF RBD) disruption / FRET / MOA assay, NRAS Q61R; assay type: biochemical; settings: NRAS Q61R; Ras-Raf disruption/FRET/MOA assay; read-out: IC50* NRAS Q61R FRET data
Outline: as §2

NRAS Q61K = NRAS Q61K (Homo sapiens (Human), UniProt P01111+P62937, Q61K); assay: Ras-Raf (BRAF RBD) disruption / FRET / MOA assay, NRAS Q61K; assay type: biochemical; settings: NRAS Q61K; Ras-Raf disruption/FRET/MOA assay; read-out: IC50* NRAS Q61K FRET data
Outline: as §2

Sequence of NRAS Q61R (P01111 whole entry Q61R): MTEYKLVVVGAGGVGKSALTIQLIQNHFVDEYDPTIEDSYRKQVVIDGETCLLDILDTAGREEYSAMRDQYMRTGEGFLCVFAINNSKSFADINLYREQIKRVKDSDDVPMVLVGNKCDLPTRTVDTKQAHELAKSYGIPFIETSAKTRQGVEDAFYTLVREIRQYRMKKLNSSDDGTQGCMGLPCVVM
Sequence of NRAS Q61R (P62937 whole entry): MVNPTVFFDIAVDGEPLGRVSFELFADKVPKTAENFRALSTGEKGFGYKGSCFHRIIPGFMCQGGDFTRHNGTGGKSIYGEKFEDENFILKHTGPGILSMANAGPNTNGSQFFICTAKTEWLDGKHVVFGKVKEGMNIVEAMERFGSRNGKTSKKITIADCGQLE
Sequence of KRAS Q61H (P01116-2 other isoform, or with tags, fused parts or gaps Q61H): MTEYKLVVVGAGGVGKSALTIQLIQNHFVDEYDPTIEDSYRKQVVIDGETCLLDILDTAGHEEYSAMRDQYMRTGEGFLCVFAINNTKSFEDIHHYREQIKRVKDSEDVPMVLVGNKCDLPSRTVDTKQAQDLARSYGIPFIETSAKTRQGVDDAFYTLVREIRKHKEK
Sequence of KRAS Q61H (P62937 whole entry): as the sequence (P62937 whole entry) above
Sequence of NRAS G12C (P01111 whole entry G12C): as the sequence (P01111 whole entry Q61R) above, with G12C, R61Q counted along it
Sequence of NRAS G12C (P62937 whole entry): as the sequence (P62937 whole entry) above
Sequence of NRAS Q61K (P01111 whole entry Q61K): as the sequence (P01111 whole entry Q61R) above, with R61K counted along it
Sequence of NRAS Q61K (P62937 whole entry): as the sequence (P62937 whole entry) above
Sequence of KRAS G12D (P01116-2 other isoform, or with tags, fused parts or gaps G12D): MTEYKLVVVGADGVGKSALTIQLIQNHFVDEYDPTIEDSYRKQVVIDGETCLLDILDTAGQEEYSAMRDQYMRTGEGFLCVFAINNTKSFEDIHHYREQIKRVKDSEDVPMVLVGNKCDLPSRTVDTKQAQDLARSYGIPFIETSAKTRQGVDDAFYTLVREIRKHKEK
Sequence of KRAS G12D (P62937 whole entry): as the sequence (P62937 whole entry) above

Structure (SMILES) | EC50 [1] | IC50 (KRAS G12D) | IC50 (KRAS Q61H) | IC50 (NRAS G12C) | IC50 (NRAS Q61R) | IC50 (NRAS Q61K)
C=CC(=O)N1CC[C@]2(C1)CN(C(=O)N(C)[C@H](C(=O)N[C@H]1Cc3nc(cs3)-c3ccc4c(c3)c(c(-c3cccnc3[C@H](C)OC)n4CC)CC(C)(C)COC(=O)[C@@H]3CCCN(N3)C1=O)C(C)C)CCO2 (atropisomer, axis not shown) [Example A354] | < 5000 nM | 100 to 1000 nM | 10 to 100 nM | 10 to 100 nM | 100 to 1000 nM | 10 to 100 nM
C=CC(=O)N(C)C[C@@H]1CCN1C(=O)N(C)[C@H](C(=O)N[C@H]1Cc2nc(cs2)-c2ccc3c(c2)c(c(-c2cccnc2[C@H](C)OC)n3CC)CC(C)(C)COC(=O)[C@@H]2CCCN(N2)C1=O)C(C)C (atropisomer, axis not shown) [Example A390] | < 5000 nM | 1000 to 10000 nM | 100 to 1000 nM | 100 to 1000 nM | 1000 to 10000 nM | 100 to 1000 nM
CCn1c(-c2cccnc2[C@H](C)OC)c2c3cc(ccc31)-c1csc(n1)C[C@H](NC(=O)[C@H](C(C)C)N(C)C(=O)N1C[C@@H]3CN(C(=O)C#CC(C)(C)N(C)C)CC[C@@H]31)C(=O)N1CCC[C@H](N1)C(=O)OCC(C)(C)C2 (atropisomer, axis not shown) [Example A625] | < 5000 nM | 1000 to 10000 nM | 100 to 1000 nM | 100 to 1000 nM | 100 to 1000 nM | 100 to 1000 nM
CCn1c(-c2cccnc2[C@H](C)OC)c2c3cc(ccc31)-c1csc(n1)C[C@H](NC(=O)C[C@@H](C)OC1CN(C(=O)C#CC(C)(C)N(C)C)C1)C(=O)N1CCC[C@H](N1)C(=O)OCC(C)(C)C2 (atropisomer, axis not shown) [Example A638] | < 5000 nM | > 10000 nM | 1000 to 10000 nM | < 10 nM | 1000 to 10000 nM | 1000 to 10000 nM
C=CC(=O)N1CC[C@H](C(=O)N(C)[C@H](C(=O)N[C@H]2Cc3cc(O)cc(c3)-c3ccc4c(c3)c(c(-c3cccnc3[C@H](CC)OC)n4CC)CC(C)(C)COC(=O)[C@@H]3CCCN(N3)C2=O)C(C)C)C1 (atropisomer, axis not shown) [Example A181] | < 5000 nM | 1000 to 10000 nM and > 10000 nM | 10 to 100 nM | 10 to 100 nM and 100 to 1000 nM | 100 to 1000 nM | 100 to 1000 nM
C=CC(=O)N1CC[C@H](C(=O)N(C)[C@H](C(=O)N[C@H]2Cc3cccc(c3)-c3ccc4c(c3)c(c(-c3cccnc3[C@H](C)OC)n4CC)CC(C)(C)COC(=O)[C@@H]3CCCN(N3)C2=O)C(C)C)[C@H]1C (atropisomer, axis not shown) [Example A373] | < 5000 nM | 1000 to 10000 nM | 100 to 1000 nM | 100 to 1000 nM | 1000 to 10000 nM | 1000 to 10000 nM
C=CC(=O)N1CCC[C@]12CCN(C(=O)N(C)[C@H](C(=O)N[C@H]1Cc3nc(cs3)-c3ccc4c(c3)c(c(-c3cccnc3[C@H](C)OC)n4CC)CC(C)(C)COC(=O)[C@@H]3CCCN(N3)C1=O)C(C)C)C2 (atropisomer, axis not shown) [Example A548] | < 5000 nM | 1000 to 10000 nM | 100 to 1000 nM | 100 to 1000 nM | 100 to 1000 nM | 100 to 1000 nM
C=CC(=O)N1CC[C@]2(C1)OCN([C@H](C(=O)N[C@H]1Cc3cc(cc(C(F)F)c3)-c3ccc4c(c3)c(c(-c3cccnc3[C@H](C)OC)n4CC)CC(C)(C)COC(=O)[C@@H]3CCCN(N3)C1=O)C(C)C)C2=O (atropisomer, axis not shown) [Example A557] | < 5000 nM | 1000 to 10000 nM | 10 to 100 nM | 100 to 1000 nM | 1000 to 10000 nM | 1000 to 10000 nM
CCn1c(-c2cccnc2[C@H](C)OC)c2c3cc(ccc31)-c1csc(n1)C[C@H](NC(=O)[C@H](C(C)C)N(C)C(=O)N1CCC13CN(C(=O)/C=C/CN(C)C)C3)C(=O)N1CCC[C@H](N1)C(=O)OCC(C)(C)C2 (atropisomer, axis not shown) [Example A598] | < 5000 nM | 100 to 1000 nM | < 10 nM | 10 to 100 nM | 10 to 100 nM | 10 to 100 nM
C=CC(=O)N1CC[C@H](C(=O)N(C)[C@H](C(=O)N[C@H]2Cc3nc(n(C)n3)-c3ccc4c(c3)c(c(-c3cccnc3[C@H](C)OC)n4CC)CC(C)(C)COC(=O)[C@@H]3CCCN(N3)C2=O)C(C)C)C1 (atropisomer, axis not shown) [Example A314] | < 5000 nM | 1000 to 10000 nM | 100 to 1000 nM | 100 to 1000 nM | 100 to 1000 nM | 100 to 1000 nM
C=CC(=O)N1CC[C@H](C(=O)N(C)[C@H](C(=O)N[C@H]2Cc3cc(O)cc(c3)-c3ccc4c(c3)c(c(-c3csc(N(C)C)n3)n4CC)CC(C)(C)COC(=O)[C@@H]3CCCN(N3)C2=O)C(C)C)C1 [Example A303] | < 5000 nM | > 10000 nM | 1000 to 10000 nM | 1000 to 10000 nM | > 10000 nM | > 10000 nM
C=CC(=O)N1CCO[C@]2(CCN(C(=O)N(C)[C@H](C(=O)N[C@H]3Cc4nc(cs4)-c4ccc5c(c4)c(c(-c4cccnc4[C@H](C)OC)n5CC(F)(F)F)CC(C)(C)COC(=O)[C@@H]4CCCN(N4)C3=O)C(C)C)C2)C1 (atropisomer, axis not shown) [Example A593] | < 5000 nM | 1000 to 10000 nM | 100 to 1000 nM | 100 to 1000 nM | 100 to 1000 nM | 100 to 1000 nM
CCn1c(-c2cccnc2[C@H](C)OC)c2c3cc(ccc31)-c1cccc(c1)CC(NC(=O)[C@H](C(C)C)N1CC[C@]3(CCN(C(=O)C#C[C@@H]4COCCN4C4COC4)C3)C1=O)C(=O)N1CCC[C@H](N1)C(=O)OCC(C)(C)C2 (stereo partly drawn) [Example A565] | < 5000 nM | > 10000 nM | 1000 to 10000 nM | 100 to 1000 nM | > 10000 nM | > 10000 nM
C=C(F)C(=O)N1CC(N(C)C(=O)N(C)[C@H](C(=O)N[C@H]2Cc3nc(cs3)-c3ccc4c(c3)c(c(-c3cccnc3[C@H](C)OC)n4CC)CC(C)(C)COC(=O)[C@@H]3CCCN(N3)C2=O)C(C)C)C1 (atropisomer, axis not shown) [Example A732] | < 5000 nM | 1000 to 10000 nM | 100 to 1000 nM | 100 to 1000 nM | 100 to 1000 nM | 100 to 1000 nM
C=CC(=O)N1CC[C@H](C(=O)N(C)[C@H](C(=O)N[C@H]2CN3CCC=C(C3)c3ccc4c(c3)c(c(-c3cccnc3[C@H](C)OC)n4CC)CC(C)(C)COC(=O)[C@@H]3CCCN(N3)C2=O)C(C)C)C1 (atropisomer, axis not shown) [Example A716, (3S)-1-acryloyl-N-((2S)-1-(((6^3S,4S)-1^1-ethyl-1^2-(2-((S)-1-methoxyethyl)pyridin-3-yl)-10,10-dimethyl-5,7-dioxo-2^1,2^2,2^3,2^6,6^1,6^2,6^3,6^4,6^5,6^6-decahydro-1^1H-8-oxa-1(5,3)-indola-6(1,3)-pyridazina-2(5,1)-pyridinacycloundecaphane-4-yl)amino)-3-methyl-1-oxobutan-2-yl)-N-methylpyrrolidine-3-carboxamide] | < 5000 nM | > 10000 nM | 1000 to 10000 nM | 100 to 1000 nM | > 10000 nM | > 10000 nM
C=CC(=O)N1CCC[C@H]2CN(C(=O)N(C)[C@H](C(=O)N[C@H]3Cc4nc(cs4)-c4ccc5c(c4)c(c(-c4cccnc4[C@H](C)OC)n5CC)CC(C)(C)COC(=O)[C@@H]4CCCN(N4)C3=O)C(C)C)C[C@H]21 (atropisomer, axis not shown) [Example A618] | < 5000 nM | 1000 to 10000 nM | 100 to 1000 nM | 100 to 1000 nM | 100 to 1000 nM | 100 to 1000 nM
C=CC(=O)N(C)C[C@H]1CCN1C(=O)N(C)[C@H](C(=O)N[C@H]1Cc2nc(cs2)-c2ccc3c(c2)c(c(-c2cccnc2[C@H](C)OC)n3CC)CC(C)(C)COC(=O)[C@@H]2CCCN(N2)C1=O)C(C)C (atropisomer, axis not shown) [Example A369] | < 5000 nM | 1000 to 10000 nM | 100 to 1000 nM | 100 to 1000 nM | 100 to 1000 nM | 10 to 100 nM
C=CS(=O)(=O)N1CCC(C(=O)N(C)[C@H](C(=O)N[C@H]2Cc3nc(cs3)-c3ccc4c(c3)c(c(-c3cncnc3)n4CC)CC(C)(C)COC(=O)[C@@H]3CCCN(N3)C2=O)C(C)C)C1 (single isomer, unassigned) [Example A170] | < 5000 nM | > 10000 nM | > 10000 nM | 1000 to 10000 nM | > 10000 nM | > 10000 nM
C=CC(=O)C1CC[C@H](C(=O)N(C)[C@H](C(=O)N[C@H]2Cc3nsc(n3)-c3ccc4c(c3)c(c(-c3cccnc3[C@H](C)OC)n4CC)CC(C)(C)COC(=O)[C@@H]3CCCN(N3)C2=O)C(C)C)C1 (stereo partly drawn) [Example A694] | < 5000 nM | 1000 to 10000 nM | 100 to 1000 nM | 100 to 1000 nM | 1000 to 10000 nM | 100 to 1000 nM
